Laboratory results taken from patent publication US9365621B2, “Method for preventing neoplastic transformation by inhibition of retinoblastoma protein inactivation” (The Regents of the University of California, priority 2012, dated 2016).
No end group written: not given here.

Molecular target: T1, human Rb construct (residues 53-787) binding Human E2F1 transactivation domain (Homo sapiens, UniProt P06400, DEL245-267/DEL582-642/S780A)
T1 construct: a human Rb construct (residues 53-787, delta245-267, delta582-642, S780A); made in house; host or cells: E. coli
T1 sequence (P06400 with tags, fused parts or gaps DEL245-267/DEL582-642/S780A): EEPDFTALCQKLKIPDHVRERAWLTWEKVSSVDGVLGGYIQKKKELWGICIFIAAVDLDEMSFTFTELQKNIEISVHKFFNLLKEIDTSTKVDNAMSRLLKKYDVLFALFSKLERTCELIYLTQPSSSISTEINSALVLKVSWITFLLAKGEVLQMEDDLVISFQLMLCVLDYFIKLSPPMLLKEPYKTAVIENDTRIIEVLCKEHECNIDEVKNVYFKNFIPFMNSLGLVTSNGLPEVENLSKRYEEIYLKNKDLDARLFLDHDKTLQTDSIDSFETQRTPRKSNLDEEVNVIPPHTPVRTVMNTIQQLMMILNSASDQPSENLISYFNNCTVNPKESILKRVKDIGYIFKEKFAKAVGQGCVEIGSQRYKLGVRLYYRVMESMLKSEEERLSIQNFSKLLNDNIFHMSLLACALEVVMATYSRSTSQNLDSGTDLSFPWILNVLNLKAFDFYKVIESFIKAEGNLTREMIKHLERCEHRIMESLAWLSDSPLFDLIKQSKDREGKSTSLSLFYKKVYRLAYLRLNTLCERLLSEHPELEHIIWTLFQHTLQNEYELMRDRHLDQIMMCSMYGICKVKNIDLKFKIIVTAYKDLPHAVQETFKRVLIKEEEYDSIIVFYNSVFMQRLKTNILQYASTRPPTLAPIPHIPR
Experiment: Isothermal titration calorimetry of E2F binding to Rb (Rb activity)
Conditions: in vitro, phosphorylated Rb
Source text: The inventors have developed an assay for measuring the degree of binding between Rb and E2F. Rb inactivation corresponds to E2F binding inhibition. If you can prevent E2F binding to Rb, then you inactivate Rb, its tumor suppressing action decreases and the cell cycle continues from G1 to S and unregulated cell division occurs. Inactivation occurs upon Rb phosphorylation by Cdk. The inventors have discovered that in the presence of ‘LxCxE’ peptide, E2F inhibition is prevented upon phosphorylation.
The […] peptide was made synthetically using standard peptide synthesis. Human E2F1 transactivation domain (residues […]) and a human Rb construct (residues 53-787, delta245-267, delta582-642, S780A) were produced recombinantly in E. coli and purified to homogeneity. Rb was phosphorylated with recombinant Cdk as described.
Rb activity, defined as its ability to bind E2F, was assayed by isothermal titration calorimetry to measure quantitatively E2F binding affinity. About 50 micromolar (μm) Rb was used in the calorimetry cell and E2F was titrated in at a concentration of ˜1 mM. Standard protocols were used to determine Kd. In the experiment with the […] peptide, the peptide was first added to the cell before E2F to saturate Rb.

DLYCYEQLN [DLYCYEQLN peptide, DLYCYEQLN]
inhibition of Rb inactivation (effect of phosphorylation on E2F-Rb binding): inhibits the weakening effect of phosphorylation on E2F-Rb binding
